Legend:
[1] = target: T1, human glucocorticoid receptor (GR) complex (Homo sapiens, UniProt P04150); experiment: Glucocorticoid receptor competitive binding assay (fluorescence polarization); conditions: competition with TAMRA-labeled dexamethasone; result in words only
T1 construct: made in house; host or cells: insect cells (baculovirus expression), used as crude lysate
T1 sequence (P04150 1-777): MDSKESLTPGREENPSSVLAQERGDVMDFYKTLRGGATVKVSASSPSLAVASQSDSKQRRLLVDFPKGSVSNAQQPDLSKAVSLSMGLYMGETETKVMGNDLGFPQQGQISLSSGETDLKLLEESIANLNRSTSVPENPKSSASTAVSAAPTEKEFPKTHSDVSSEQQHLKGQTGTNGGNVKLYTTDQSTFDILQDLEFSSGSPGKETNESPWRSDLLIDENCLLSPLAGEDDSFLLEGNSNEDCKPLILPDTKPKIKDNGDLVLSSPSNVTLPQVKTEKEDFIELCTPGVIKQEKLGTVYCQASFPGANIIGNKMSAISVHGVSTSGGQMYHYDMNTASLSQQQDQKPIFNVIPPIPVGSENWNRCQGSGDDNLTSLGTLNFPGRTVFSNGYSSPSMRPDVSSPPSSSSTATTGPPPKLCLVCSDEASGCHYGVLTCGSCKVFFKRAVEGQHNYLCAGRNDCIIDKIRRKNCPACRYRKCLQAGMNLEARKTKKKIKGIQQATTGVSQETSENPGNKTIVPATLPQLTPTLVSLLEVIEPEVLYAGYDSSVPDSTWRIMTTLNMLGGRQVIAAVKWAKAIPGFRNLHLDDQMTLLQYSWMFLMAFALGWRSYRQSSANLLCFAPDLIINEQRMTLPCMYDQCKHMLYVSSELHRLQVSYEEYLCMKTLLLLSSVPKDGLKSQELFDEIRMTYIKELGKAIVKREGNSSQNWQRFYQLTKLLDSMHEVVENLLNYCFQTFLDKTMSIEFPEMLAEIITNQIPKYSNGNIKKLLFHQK
Experimental: Compounds of the invention were evaluated for binding to the steroid receptor by a fluorescence polarization competitive binding assay. Detailed descriptions for preparation of recombinant glucocorticoid receptor (GR) complex used in the assay is described in U.S. Patent Application Publication No. US 2003/0017503, filed May 20, 2002, and incorporated herein by reference in its entirety. Preparation of the tetramethyl rhodamine (TAMRA)-labeled dexamethasone probe was accomplished using a standard literature procedure (M. Pons et al., J. Steroid Biochem., 1985, 22, pp. 267-273).
A. Glucocorticoid Receptor Competitive Binding Assay
The affinity of the probe for the steroid receptor was then determined in a titration experiment. The fluorescence polarization value of the probe in assay buffer was measured on an SLM-8100 fluorometer using the excitation and emission maximum values described above. Aliquots of expression vector lysate were added and fluorescence polarization was measured after each addition until no further change in polarization value was observed. Non-linear least squares regression analysis was used to calculate the dissociation constant of the probe from the polarization values obtained for lysate binding to the probe.
(§1) This assay uses fluorescence polarization (FP) to quantitate the ability of test compounds to compete with tetramethyl rhodamine (TAMRA)-labeled dexamethasone for binding to a human glucocorticoid receptor (GR) complex prepared from an insect expression system. The assay buffer was: 10 mM TES, 50 mM KCl, 20 mM Na2MoO4.2H2O, 1.5 mM EDTA, 0.04% w/v CHAPS, 10% v/v glycerol, 1 mM dithiothreitol, pH 7.4. Test compounds were dissolved to 1 mM in neat DMSO and then further diluted to 10× assay concentration in assay buffer supplemented with 10% v/v DMSO. Test compounds were serially diluted at 10× assay concentrations in 10% DMSO-containing buffer in 96-well polypropylene plates. Binding reaction mixtures were prepared in 96-well black Dynex microtiter plates by sequential addition of the following assay components to each well: 15 μL of 10× test compound solution, 85 μL of GR-containing baculovirus lysate diluted 1:170 in assay buffer, and 50 μL of 15 nM TAMRA-labeled dexamethasone. Positive controls were reaction mixtures containing no test compound; negative controls (blanks) were reaction mixtures containing 0.7 μM to 2 μM dexamethasone. The binding reactions were incubated for 1 hour at room temperature and then read for fluorescence polarization in the LJL Analyst set to 550 nm excitation and 580 nm emission, with the Rhodamine 561 dichroic mirror installed. IC50 values were determined by iterative non-linear curve fitting of the FP signal data to a 4-parameter logistic equation.

[2] = test system: glucocorticoid receptor; experiment: Glucocorticoid receptor function, one or more of the above assays (not specified which); format: cell-based; conditions: in one or more of the above assays; result in words only
Experimental: as §1, with “Positive controls were reaction mixtures containing no test compound; negative controls (blanks) were reaction mixtures containing 0.7 μM to 2 μM dexamethasone.” left out
Dexamethasone, a synthetic ligand to the glucocorticoid receptor (GR), induces expression of aromatase in human foreskin fibroblast cells. The activity of aromatase is measured by the conversion of testosterone to estradiol in culture media.
Human foreskin fibroblast cells (ATCC Cat. No. CRL-2429, designation CCD112SK) are plated on 96 well plates at 50,000 cells per well 5 days before use, in Iscove's Modified Dulbecco's Media (GibcoBRL Life Technologies Cat No. 12440-053) supplemented with 10% charcoal filtered FBS (Clonetech Cat No. SH30068) and Gentamycin (GibcoBRL Life Technologies Cat. No. 15710-064). […] The extent of aromatase induction by test compounds is expressed as a relative percentage to dexamethasone. […]

Structure (SMILES) | activity in the GR binding assay [1] | activity as an agonist of the glucocorticoid receptor function [2]
CC1(CC(O)(Cc2ccnc3ccccc23)C(F)(F)F)CCc2ccccc21 (stereo not drawn) [1,1,1-Trifluoro-3-(1-methylindan-1-yl)-2-quinolin-4-ylmethylpropan-2-ol] | potent activity | 
CC1(CC(O)(Cc2cc3ccccc3[nH]2)C(F)(F)F)CCOc2ccc(F)cc21 (stereo not drawn) [1,1,1-Trifluoro-3-(6-fluoro-4-methylchroman-4-yl)-2-(1H-indol-2-ylmethyl)propan-2-ol] | potent activity | activity as an agonist
CC1(CC(O)(Cc2ccnc3ccccc23)C(F)(F)F)CCOc2ccc(F)cc21 (stereo not drawn) [1,1,1-Trifluoro-3-(6-fluoro-4-methylchroman-4-yl)-2-quinolin-4-ylmethylpropan-2-ol] |  | activity as an agonist
OC(Cc1ccnc2ccccc12)(CC1CCOc2ccc(F)cc21)C(F)(F)F (stereo not drawn) [1,1,1-Trifluoro-3-(6-fluorochroman-4-yl)-2-quinolin-4-ylmethylpropan-2-ol] | potent activity | 
CC1(CC(O)(Cc2ccc(C#N)cc2Cl)C(F)(F)F)CCOc2ccc(F)cc21 (stereo not drawn) [3-Chloro-4-[3,3,3-trifluoro-2-(6-fluoro-4-methylchroman-4-ylmethyl)-2-hydroxypropyl]benzonitrile] | potent activity | 
Cc1cc(C#N)cc2[nH]c(CC(O)(CC3(C)CCOc4ccc(F)cc43)C(F)(F)F)cc12 (stereo not drawn) [4-Methyl-2-[3,3,3-trifluoro-2-(6-fluoro-4-methylchroman-4-ylmethyl)-2-hydroxypropyl]-1H-indole-6-carbonitrile] | potent activity | activity as an agonist
Cc1cc(C#N)cc2[nH]c(CC(O)(CC3(C)CCOc4ccc(S(C)(=O)=O)cc43)C(F)(F)F)cc12 (stereo not drawn) [4-Methyl-2-[3,3,3-trifluoro-2-hydroxy-2-(6-methanesulfonyl-4-methylchroman-4-ylmethyl)propyl]-1H-indole-6-carbonitrile] | potent activity | 

Source: patent US7795272B2, “Glucocorticoid mimetics, methods of making them, pharmaceutical compositions and uses thereof” (Boehringer Ingelheim Pharmaceutical, Inc., priority 2004, dated 2010)
